According to publication PMC6259751, “Investigating Spectrum of Biological Activity of 4- and 5-Chloro-2-hydroxy-N-[2-(arylamino)-1-alkyl-2-oxoethyl]benzamides” (Molecules, 2011):
≈ marks a conversion by molar mass, not a printed value. Where “and” joins values, the source holds several entries; their conditions need not be identical. Equal values may be shown once. Read-outs that look alike come from different tables or passages of the source.

What was measured:
[1] = Lipophilicity determination by RP-HPLC (capacity factor k / log k); format: physicochemical; settings: C18 column, MeOH 70% / H2O 30%, isocratic
How it was run: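 Isocratic RP-HPLC on end-capped C18 column, MeOH/H2O 70:30, 1.0 mL/min, 30 °C, UV 210 nm. Dead time from unretained KI; k = (tR − tD)/tD, log k taken as lipophilicity index on log P scale. Calculated log P/Clog P from two programs also reported.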

[2] = system: Mycobacterium tuberculosis MTB CNCTC My 331/88; assay: In vitro antimycobacterial evaluation; format: cell-based; settings: IC90 value
[3] = system: Mycobacterium avium MA CNCTC My 330/88; assay: In vitro antimycobacterial evaluation; format: cell-based; settings: IC90 value
[4] = system: Mycobacterium kansasii MK CNCTC My 235/80; assay: In vitro antimycobacterial evaluation; format: cell-based; settings: IC90 value
Candida tropicalis 156 = assay: In vitro antifungal susceptibility testing (broth microdilution); format: cell-based; settings: M27-A2 for yeasts, IC80 value
[5] = system: Trichophyton mentagrophytes 445; assay: as above; format: cell-based; settings: M38-A for moulds, IC50 value, read-out: MIC TM
[6] = system: photosynthetic electron transport (PET) in spinach chloroplasts; assay: Inhibition of photosynthetic electron transport (PET) in spinach chloroplasts; format: biochemical, Spinacia oleracea L.; settings: DCPIP photoreduction
Experimental: Chloroplasts were prepared from spinach (Spinacia oleracea L.) according to Masarovicova and Kralova. The inhibition of photosynthetic electron transport (PET) in spinach chloroplasts was determined spectrophotometrically (Genesys 6, Thermo Scientific, USA), using an artificial electron acceptor 2,6-dichlorophenol-indophenol (DCIPP) according to Kralova et al., and the rate of photosynthetic electron transport was monitored as a photoreduction of DCPIP. The measurements were carried out in phosphate buffer (0.02 mol/L, pH 7.2) containing sucrose (0.4 mol/L), MgCl2 (0.005 mol/L) and NaCl (0.015 mol/L). The chlorophyll content was 30 mg/L in these experiments and the samples were irradiated (~100 W/m^2) from 10 cm distance with a halogen lamp (250 W) using a 4 cm water filter to prevent warming of the samples. The studied compounds were dissolved in DMSO due to their limited water solubility. […] The inhibitory efficiency of the studied compounds was expressed by IC50 values, i.e. by molar concentration of the compounds causing 50% decrease in the oxygen evolution rate relative to the untreated control.

[7] = system: three Mycobacteria strains; assay: Antimycobacterial screening, summary statements (strain not specified); format: cell-based, Mycobacterium sp.; settings: Mycobacterium, read-out: antitubercular / antimycobacterial activity (MIC)
Experimental: The discussed amides were tested against three Mycobacteria strains. […] Activities of some benzamides, especially against M. avium and M. kansasii, considerably exceeded the activity of isoniazid (INH) used as an internal standard. The discussed compounds can be divided according to the activities against individual Mycobacteria strains, and structure-activity relationships within Group 1, Group 2 and Group 4 can be discussed.
The in vitro antimycobacterial activity of all prepared compounds was evaluated against Mycobacterium tuberculosis MTB CNCTC My 331/88 (identical with H37RV and ATCC 27294, dilution of the strain was 10^−3 μmol/L), Mycobacterium avium MA CNCTC My 330/88 (identical with ATCC 25291, dilution of the strain was 10^−5 μmol/L) and Mycobacteriumkansasii MK CNCTC My 235/80 (identical with ATCC 12478, dilution of the strain was 10^−4 μmol/L) in the Laboratory for mycobacterial diagnostics and TB, Institute of Public Health in Ostrava, Czech Republic. All strains were obtained from the Czech National Collection of Type Cultures (CNCTC). Antimycobacterial activities were determined in the Sula semisynthetic medium (Sevac, Prague, Czech Republic). […] Reading was carried out on a stand with a bottom magnifying mirror, macroscopically, with the use of magnifying glass. The growth in plates was evaluated after 14 and 21 days of the incubation. […]

[8] = system: Staphylococcus aureus CCM 4516/08; assay: In vitro antibacterial susceptibility testing (broth microdilution); settings: read-out: MIC SA
[9] = system: methicilin resistant Staphylococcus aureus H 5996/08; assay: as above; settings: MRSA, read-out: MIC MRSA
[10] = system: Staphylococcus epidermidis H 6966/08; assay: as above; settings: read-out: MIC SE
[11] = system: Enterococcus sp. J 14365/08; assay: as above; settings: read-out: MIC EF
[12] = system: photosynthetic electron transport (PET) in spinach chloroplasts; design: method as in earlier work; settings: standard ref 41; cited from earlier work

| Compound | log k [1] | MIC ([2]; 14h) | MIC ([2]; 21h) | MIC ([3]; 14h) | MIC ([3]; 21h) | MIC ([4]; 14h) | MIC ([4]; 21h) | MIC (Candida tropicalis 156; 24h) | MIC (Candida tropicalis 156; 48h) | MIC ([5]; 72h) | MIC ([5]; 120h) | IC50 [6] | MIC [7] | MIC ([8]; CCM4516, 24 h) | MIC ([8]; CCM4516, 48 h) | MIC ([9]; 24 h) | MIC ([9]; 48 h) | MIC ([10]; H6966/08, 24 h) | MIC ([10]; H6966/08, 48 h) | MIC ([11]; SP.J14365/08, 24 h) | further results |
| --- | --- | --- | --- | --- | --- | --- | --- | --- | --- | --- | --- | --- | --- | --- | --- | --- | --- | --- | --- | --- | --- |
| O=C(N[C@H](Cc1ccccc1)C(=O)Nc1ccc(Cl)cc1)c1ccc(Cl)cc1O [9f, N-{(1R)-1-benzyl-2-[(4-chlorophenyl)amino]-2-oxoethyl}-4-chloro-2-hydroxybenzamide] | 0.7479 | 32 µM (≈ 13.7 µg/mL) | 32 µM (≈ 13.7 µg/mL) | 32 µM (≈ 13.7 µg/mL) | 32 µM (≈ 13.7 µg/mL) | 32 µM (≈ 13.7 µg/mL) | 32 µM (≈ 13.7 µg/mL) | > 125 µM | > 125 µM | > 125 µM | > 125 µM | 23.5 µM | 32 µM (≈ 13.7 µg/mL) | > 500 µM | > 500 µM | > 500 µM | > 500 µM | > 500 µM | > 500 µM | > 500 µM | MIC ([11]; SP.J14365/08, 48 h): > 500 µM |
| CN(C)C(=O)Nc1ccc(Cl)c(Cl)c1 [DCMU, 3-(3,4-dichlorophenyl)-1,1-dimethylurea] |  |  |  |  |  |  |  |  |  |  |  |  |  |  |  |  |  |  |  |  | IC50 [12]: ~1.9 µM and 1.9 µM |
| O=C(N[C@H](Cc1ccccc1)C(=O)Nc1ccc(Cl)cc1)c1cc(Cl)ccc1O [8l, N-{(1R)-1-benzyl-2-[(4-chlorophenyl)amino]-2-oxoethyl}-5-chloro-2-hydroxybenzamide] | 0.7329 | 16 µM (≈ 6.87 µg/mL) | 16 µM (≈ 6.87 µg/mL) | 32 µM (≈ 13.7 µg/mL) | 32 µM (≈ 13.7 µg/mL) | 32 µM (≈ 13.7 µg/mL) | 32 µM (≈ 13.7 µg/mL) | 125 µM (≈ 53.7 µg/mL) | > 125 µM | 125 µM (≈ 53.7 µg/mL) | 125 µM (≈ 53.7 µg/mL) | 33.7 µM | 32 µM (≈ 13.7 µg/mL) | > 125 µM | > 125 µM | > 125 µM | > 125 µM | > 125 µM | > 125 µM | > 125 µM | MIC ([11]; SP.J14365/08, 48 h): > 125 µM |
